According to US20140213641A1, “POLYMERIC NANOPARTICLES FOR DRUG DELIVERY” (INSTITUT QUIMIC DE SARRIA, priority 2011, published 2014):
Read-outs that look alike come from different tables or passages of the source.

Legend:
U87-MG [1] = conditions: read-out: literature IC50 values for paclitaxel alone; cited from earlier work
CGL1 = conditions: cells treated for few days, read-out: Paclitaxel metabolic assay (historical data) IC50; cited from earlier work
U87-MG [2] = conditions: cells treated for few days, read-out: Paclitaxel metabolic assay (historical data) IC50; cited from earlier work
LN-229 cell line = assay: Clonogenic assay (soft agar colony formation); format: cell-based; conditions: Homo sapiens
Method: (§1) A clonogenic assay was carried out to observe the toxicity of decorated paclitaxel-loaded nanoparticles compared with that of paclitaxel and empty nanoparticles on glioma cell lines and determine IC50 values in a long term effect (2 to 3 weeks growth). Nanoparticles with or without a surface-modifying agent (SEQ ID#5) were formed according to the method of example 2, with or without inclusion of paclitaxel.
(§2) Three cells lines were used. The CGL-1 cell line (Oncodesign, Dijon, France) was isolated from the TG-1 tumour subcutaneously (SC) implanted in Nude rat. 14 days were allowed for colony formation. The human U-87 MG cell line (American Type Culture Collection) was initiated from a […] glioblastoma from a person. 21 days were allowed for colony formation. Finally, the LN-229 cell line (American Type Culture Collection) was established in 1979 from cells taken from a patient with right frontal parieto-occipital glioblastoma. 14-21 days were allowed for colony formation.
(§3) The formulations tested were as follows: nanoparticles (stock solution NaCl 0.9%); paclitaxel-loaded nanoparticles (3.33% paclitaxel by weight; stock solution NaCl 0.9%); and paclitaxel (stock solution DMSO 100%). All test substances diluted at 100 μM in their respective vehicle to obtain stock solutions. Five concentrations (1:5 or 1:3 dilution steps) were used in triplicate. Formulations were obtained by diluting stock solutions at 100 μM in their respective vehicle to obtain a series of five concentrations in 1:5 or 1:3 dilution steps. Each solution was then further diluted at 1:20 with RPMI 1640 before final dilution at 1:10 into soft agar.
(§4) Repetitions were carried out for GCL-1 at 2 nM, 8 nM, 40 nM, 200 nM and 1000 nM and for LN-229 at 1.2 nM, 3.7 nM, 11 nM, and 33 nM. At least 2 independent experiments were carried out with top concentrations and dilution steps changed when needed. Cells were incubated for 14 to 21 days with the different treatments.
(§5) Results are given in Table 4 and indicate the % survival from the initial 300 clones. Vehicle results not included (100% survival in all cases). The results are shown graphically in FIGS. 4, 5 and 6. Clonogenic tests are based on clones of cells and not cells alone.

CGL-1 cell line = assay: Clonogenic assay (soft agar colony formation); format: cell-based; conditions: 336 h, read-out: IC50 (concentration that inhibits 50% of clones); CGL1, experiment 3, serial dilutions 1:5, highest concentration 1000 nM, 14 days colony formation
Method: as §1, §2, §3, §4, §5

U-87 MG cell line = assay: Clonogenic assay (soft agar colony formation); format: cell-based; conditions: Homo sapiens
Method: as §1, §2, §3, §4, §5

in vitro = conditions: human
Method: (§6) An ATP-lite assay was carried out over 48 to 72 hours in order to determine cytotoxicity of paclitaxel-loaded nanoparticles comprising a surface-modifying agent compared with that of paclitaxel and empty nanoparticles on healthy brain cell lines and determine IC50 values.
(§7) The formulations tested were as follows: vehicle, empty nanoparticles, decorated paclitaxel-loaded nanoparticles (3.33% paclitaxel by weight; decoration: SEQ ID #5) paclitaxel and etoposide (etoposide is described as having mild toxicity in treatment of brain cancer).
(§8) Three cell lines were tested. Normal human astrocytes (NHA; Lonza) are primary-derived cultures of adherent cells with limited number of divisions. Normal human […] (NHNP; primary cell line; Lonza) are neurosphere growing cells with high number of division that differentiate in adherent […] cells and neurons under specific conditions (laminin coated plates, induction with differentiation factors). Finally, immortalized human neural progenitors (RenCells; Millipore) are fetal brain cells transformed with c-myc oncogene.
(§9) Cells were incubated with treatment for 24 hours (astrocytes) and 72 hours (progenitor cell lines)

[3] = test system: Immortalized human neural progenitors (ReNcells); conditions: 72 h, 50 μM
Method: as §6, §7, §8, §9

[4] = test system: Normal human neural progenitors (NHNP); conditions: 72 h, 50 μM
Method: as §6, §7, §8, §9

IC50 (LN-229 cell line; LN-229, read-out: IC50 (concentration that inhibits 50% of clones), LN229, experiment 4, serial dilutions 1:3, highest concentration 100 nM, 14-21 days colony formation) [nM] | IC50 (LN-229 cell line; LN-229, read-out: IC50 (concentration that inhibits 50% of clones), LN229, experiment 5, serial dilutions 1:3, highest concentration 100 nM, 14-21 days colony formation) [nM] | IC50 (CGL-1 cell line) [nM] | IC50 (U-87 MG cell line; 504 h, read-out: IC50 (concentration that inhibits 50% of clones), U87-MG, experiment 2, serial dilutions 1:5, highest concentration 500 nM, 21 days colony formation) [nM] | IC50 (U-87 MG cell line; 504 h, read-out: IC50 (concentration that inhibits 50% of clones), U87-MG, experiment 3, serial dilutions 1:5, highest concentration 500 nM, 21 days colony formation) [nM] | IC50 (U-87 MG cell line; U87-MG cells, test repeated, read-out: IC50, repeated test) [nM] | IC50 at 24 h (in vitro) [nM] | SMILES | IC50 (U87-MG [1]) [nM] | IC50 (CGL1) [nM] | IC50 (U87-MG [2]) [nM] | % survival [3] [%] | % survival [4] [%]
7.3 | 21 | 792 | 2.6 | 7.5 | 4 to 20 | – | CC(=O)O[C@H]1C(=O)[C@@]2(C)[C@H]([C@H](OC(=O)c3ccccc3)[C@]3(O)C[C@H](OC(=O)[C@H](O)[C@@H](NC(=O)c4ccccc4)c4ccccc4)C(C)=C1C3(C)C)[C@]1(OC(C)=O)CO[C@@H]1C[C@@H]2O [Paclitaxel, paclitaxel] | 10 to 20 | > 100 | ~10 | – | –
– | – | – | – | – | – | ~50000 | COc1cc([C@@H]2c3cc4c(cc3[C@@H](O[C@@H]3O[C@@H]5CO[C@@H](C)O[C@H]5[C@H](O)[C@H]3O)[C@H]3COC(=O)[C@H]23)OCO4)cc(OC)c1O [Etoposide, etoposide] | – | – | – | 3 | 21
